“And” between values parts separate entries of the source, which are not always exact repeats. Equal values may be shown once. Toxic doses and inconclusive results are not listed. How the source made its calls: active means survival T/C of 150% or more; inactive means T/C below 125% in these data.
Test system: P388 leukemia ip, CD2F1 mice, survival T/C
Assay: NCI In Vivo Anticancer Drug Screen. Data for tumor model P388 Leukemia (intraperitoneal) in CD2F1 (CDF1) mice
Conditions: endpoint: median survival time, higher = longer survival
In short: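 Mice carrying the transplanted tumor received test compound or vehicle. Survival was recorded in each group, and the value is the treated-group measurement divided by that of the vehicle-treated control group.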

[1] = dose: 50.0 mg/kg/injection, schedule: Q01DX005 (ip), vehicle: saline
[2] = dose: 100.0 mg/kg/injection, schedule: Q01DX005 (ip), vehicle: saline
[3] = dose: 200.0 mg/kg/injection, schedule: Q01DX005 (ip), vehicle: saline
[4] = dose: 50.0 mg/kg/injection, schedule: Q01DX005 (ip), vehicle: saline with Tween-80
[5] = dose: 100.0 mg/kg/injection, schedule: Q01DX005 (ip), vehicle: saline with Tween-80
[6] = dose: 50.0 mg/kg/injection, schedule: Q01DX009 (ip), vehicle: saline with Tween-80
[7] = dose: 100.0 mg/kg/injection, schedule: Q04DX002 (ip), vehicle: Klucel (hydroxypropylcellulose) (HPC)
[8] = dose: 200.0 mg/kg/injection, schedule: Q04DX002 (ip), vehicle: Klucel (hydroxypropylcellulose) (HPC)
[9] = dose: 100.0 mg/kg/injection, schedule: Q01DX009 (ip), vehicle: saline with Tween-80

Measured: T/C

CC(=O)NC1C(=O)OC(C(O)CO)C1O (stereo unspecified)
inactive: dose: 12.5 mg/kg/injection, schedule: Q01DX009 (ip), vehicle: water 106 % of control | dose: 25.0 mg/kg/injection, schedule: Q01DX009 (ip), vehicle: water 91 % of control | dose: 50.0 mg/kg/injection, schedule: Q01DX009 (ip), vehicle: water 94 % of control | dose: 100.0 mg/kg/injection, schedule: Q01DX009 (ip), vehicle: water 102 % of control | dose: 200.0 mg/kg/injection, schedule: Q01DX009 (ip), vehicle: water 98 % of control

CCN(CC)c1ccc(C(NCCC(C)C)C(Cl)(Cl)Cl)cc1 (stereo unspecified)
inactive: [1] 97 % of control | [2] 101 % of control | [3] 101 % of control

COC1=C(C)C(=O)C2=C(C1=O)C(CO)N1C(C#N)C3CC4C(C1C2N1CCOC41)N3C (stereo unspecified)
inactive: dose: 0.15 mg/kg/injection, schedule: Q01DX005 (ip), vehicle: acid diluted with saline 111 % of control and 117 % of control | dose: 0.3 mg/kg/injection, schedule: Q01DX005 (ip), vehicle: acid diluted with saline 113 % of control | dose: 0.6 mg/kg/injection, schedule: Q01DX005 (ip), vehicle: acid diluted with saline 123 % of control
active: dose: 0.4 mg/kg/injection, schedule: Q01DX005 (ip), vehicle: saline + alcohol 152 % of control | dose: 0.8 mg/kg/injection, schedule: Q01DX005 (ip), vehicle: saline + alcohol 154 % of control

CC(CN(C)C)OC(=O)c1ccc(Cl)cc1Cl (stereo unspecified)
inactive: [1] 100 % of control | [2] 98 % of control | [3] 100 % of control

CCCCCCCC(=O)NN
inactive: dose: 12.5 mg/kg/injection, schedule: Q01DX009 (ip), vehicle: suspension in saline 96 % of control | dose: 25.0 mg/kg/injection, schedule: Q01DX009 (ip), vehicle: suspension in saline 96 % of control | dose: 50.0 mg/kg/injection, schedule: Q01DX009 (ip), vehicle: suspension in saline 97 % of control | dose: 100.0 mg/kg/injection, schedule: Q01DX009 (ip), vehicle: suspension in saline 96 % of control

O=c1[nH]c(=S)c2c(n1CCCO)CCC2
inactive: dose: 50.0 mg/kg/injection, schedule: Q01DX005 (ip), vehicle: Klucel (hydroxypropylcellulose) (HPC) 97 % of control | dose: 100.0 mg/kg/injection, schedule: Q01DX005 (ip), vehicle: Klucel (hydroxypropylcellulose) (HPC) 101 % of control | dose: 200.0 mg/kg/injection, schedule: Q01DX005 (ip), vehicle: Klucel (hydroxypropylcellulose) (HPC) 105 % of control

CCCCN(CC)CCCCCCCCCCN1CCCc2cc(OC)ccc21
inactive: dose: 12.5 mg/kg/injection, schedule: Q01DX005 (ip), vehicle: saline with Tween-80 101 % of control | dose: 25.0 mg/kg/injection, schedule: Q01DX005 (ip), vehicle: saline with Tween-80 111 % of control | [4] 115 % of control | [5] 107 % of control

CN[C@H]1CC[C@]23C[C@]24CC[C@]2(C)[C@@H]([C@H](C)N(C)C)CC[C@@]2(C)[C@@H]4CC[C@H]3C1(C)C
inactive: dose: 3.12 mg/kg/injection, schedule: Q01DX009 (ip), vehicle: saline with Tween-80 112 % of control | dose: 6.25 mg/kg/injection, schedule: Q01DX009 (ip), vehicle: saline with Tween-80 100 % of control | dose: 12.5 mg/kg/injection, schedule: Q01DX009 (ip), vehicle: saline with Tween-80 102 % of control | dose: 25.0 mg/kg/injection, schedule: Q01DX009 (ip), vehicle: saline with Tween-80 102 % of control | [6] 118 % of control

O=C(O)c1ccc(NC(=S)NNC(=O)c2ccncc2)cc1
inactive: [7] 99 % of control | [8] 102 % of control | dose: 400.0 mg/kg/injection, schedule: Q04DX002 (ip), vehicle: Klucel (hydroxypropylcellulose) (HPC) 100 % of control

CN1CC=C(c2ccccc2)C(O)C1 (stereo unspecified)
inactive: dose: 12.5 mg/kg/injection, schedule: Q04DX002 (ip), vehicle: saline 116 % of control | dose: 15.0 mg/kg/injection, schedule: Q01DX005 (ip), vehicle: saline 100 % of control | dose: 25.0 mg/kg/injection, schedule: Q04DX002 (ip), vehicle: saline 101 % of control | dose: 30.0 mg/kg/injection, schedule: Q01DX005 (ip), vehicle: saline 99 % of control | dose: 50.0 mg/kg/injection, schedule: Q04DX002 (ip), vehicle: saline 101 % of control | dose: 60.0 mg/kg/injection, schedule: Q01DX005 (ip), vehicle: saline 117 % of control and 97 % of control

Cc1nnsc1-c1nnc2sc(C(F)(F)F)nn12
inactive: dose: 50.0 mg/kg/injection, schedule: Q04DX002 (ip), vehicle: Klucel (hydroxypropylcellulose) (HPC) 100 % of control | [7] 100 % of control | [8] 100 % of control

Cc1ccc(C(=O)Nc2ccc(N(CCCl)CCCl)cc2)cc1
inactive: dose: 6.25 mg/kg/injection, schedule: Q01DX001 (ip), vehicle: Klucel (hydroxypropylcellulose) (HPC) 102 % of control | dose: 12.5 mg/kg/injection, schedule: Q01DX001 (ip), vehicle: Klucel (hydroxypropylcellulose) (HPC) 108 % of control | dose: 25.0 mg/kg/injection, schedule: Q01DX001 (ip), vehicle: Klucel (hydroxypropylcellulose) (HPC) 110 % of control

Cc1cc(Br)ccc1N=c1scc(-c2ccc(Cl)cc2)n1C
inactive: dose: 50.0 mg/kg/injection, schedule: Q01DX009 (ip), vehicle: Klucel (hydroxypropylcellulose) (HPC) 95 % of control | dose: 100.0 mg/kg/injection, schedule: Q01DX009 (ip), vehicle: Klucel (hydroxypropylcellulose) (HPC) 93 % of control | dose: 200.0 mg/kg/injection, schedule: Q01DX009 (ip), vehicle: Klucel (hydroxypropylcellulose) (HPC) 91 % of control

O=C(CCN1CCCCC1)Nc1ccc(F)c(Cl)c1
inactive: [4] 93 % of control | [5] 102 % of control | dose: 200.0 mg/kg/injection, schedule: Q01DX005 (ip), vehicle: saline with Tween-80 93 % of control

CN(Cc1cnc2nc(N[Si](C)(C)C)nc(N[Si](C)(C)C)c2n1)c1ccc(C(=O)NC(CCC(=O)O[Si](C)(C)C)C(=O)O[Si](C)(C)C)cc1 (stereo unspecified)
inactive: dose: 60.0 mg/kg/injection, schedule: Q04DX003 (ip), vehicle: saline 109 % of control
active: dose: 0.63 mg/kg/injection, schedule: Q01DX009 (ip), vehicle: saline 165 % of control | dose: 1.25 mg/kg/injection, schedule: Q01DX009 (ip), vehicle: saline 191 % of control | dose: 1.9 mg/kg/injection, schedule: Q04DX003 (ip), vehicle: saline 159 % of control | dose: 2.5 mg/kg/injection, schedule: Q01DX009 (ip), vehicle: saline 226 % of control | dose: 3.8 mg/kg/injection, schedule: Q04DX003 (ip), vehicle: saline 177 % of control | dose: 7.5 mg/kg/injection, schedule: Q04DX003 (ip), vehicle: saline 195 % of control | dose: 15.0 mg/kg/injection, schedule: Q04DX003 (ip), vehicle: saline 218 % of control | dose: 30.0 mg/kg/injection, schedule: Q04DX003 (ip), vehicle: saline 236 % of control

Nc1n[nH]c(=O)n1N
inactive: dose: 100.0 mg/kg/injection, schedule: Q01DX001 (ip), vehicle: Klucel (hydroxypropylcellulose) (HPC) 106 % of control | dose: 200.0 mg/kg/injection, schedule: Q01DX001 (ip), vehicle: Klucel (hydroxypropylcellulose) (HPC) 100 % of control | dose: 400.0 mg/kg/injection, schedule: Q01DX001 (ip), vehicle: Klucel (hydroxypropylcellulose) (HPC) 107 % of control

ClCCN(CCCl)c1ccc(/C=N/Nc2c3ccccc3nc3ccccc23)cc1
inactive: dose: 6.25 mg/kg/injection, schedule: Q01DX009 (ip), vehicle: DMSO 88 % of control | dose: 12.5 mg/kg/injection, schedule: Q01DX009 (ip), vehicle: DMSO 90 % of control

COc1ccc(CC(N)c2nn[nH]n2)cc1 (stereo unspecified)
inactive: [6] 96 % of control | [9] 98 % of control

COc1ccc2cc(O)ccc2c1
inactive: [9] 113 % of control | dose: 200.0 mg/kg/injection, schedule: Q01DX009 (ip), vehicle: saline with Tween-80 100 % of control | dose: 400.0 mg/kg/injection, schedule: Q01DX009 (ip), vehicle: saline with Tween-80 90 % of control

N=C(N)c1ccc(/C=C/c2ccc(C(=N)N)cc2)cc1
active: dose: 64.0 mg/kg/injection, schedule: Q01DX009 (ip), vehicle: Klucel (hydroxypropylcellulose) (HPC) 177 % of control
inactive: dose: 8.0 mg/kg/injection, schedule: Q01DX009 (ip), vehicle: saline with Tween-80 119 % of control | dose: 16.0 mg/kg/injection, schedule: Q01DX009 (ip), vehicle: saline with Tween-80 122 % of control and 124 % of control | dose: 32.0 mg/kg/injection, schedule: Q01DX009 (ip), vehicle: saline with Tween-80 124 % of control

From PubChem BioAssay AID330 (DTP/NCI, 2004)
